Experiment [1] concerns monoarthritis. Nature of the experiment: Monoarthritis chronic pain model (complete Freund's adjuvant), paw pressure test. It counts as in vivo, Sprague-Dawley rats. The note with it: PTX administered for 10 days, effect up to 21 days. On the procedure: Sprague-Dawley rats weighing approximately 100 g were used. This model was described by Butler (Butler et al, 1992). He was inoculated into the right paw (tibio-tarsal fourth) of rats with 50 uL of complete Freund's adjuvant containing 300 ug Mycobacterium butiricum. This injection produces a localized arthritis syndrome and found to be stable between four and six post-inoculation, weeks During this period there is an establishment of neurogenic pain and hyperalgesia, and this pain is held for more than two months period. Control rats were injected with the vehicle only Mycobacterium butiricum.
All doses of nanoparticles or free drugs were administered by intrathecal (it) in a maximum volume of […], dissolved in artificial cerebrospinal fluid (LCA: 1.3 mm CaCl2, KCl 2.8 mm, 0.9 mm MgCl2, NaHCO3 20 mM, 2.5 mM Na 2 HPO 7H2O, 125 mM NaCl). The injection i.t. it involves administration of the drug into the subarachnoid space between lumbar vertebrae L5 and L6 (Mestre et al, 1994) using a Hamilton syringe with a needle 26Gx1/2”. The entrance to the subarachnoid space evidenced by a slight movement in the tail of the rat, due to the mechanical stimulation of the needle to penetrate the spinal cord meninges. […]

Experiment [2] deals with primary cultures of activated microglia. As to conditions: LPS-activated microglia treated with propentofylline; cited from earlier work.

The structures appear in SMILES notation.

As to `CC(=O)CCCCn1c(=O)c2c(ncn2C)n(C)c1=O` [PTX, 3,7-dimethyl-1-(5-oxo-hexyl)xanthine], the “effect on threshold of pain, pressure test of the leg” value in experiment [1] is reported as “lowers the threshold of pain”.

For the compound `CCCn1cnc2c1c(=O)n(CCCCC(C)=O)c(=O)n2C` [propentofylline, 3-methyl-1-(5-oxo-hexyl)-7-propylxanthine], the “production of tumor necrosis factor (TNF), IL-1β and radicals oxygen” value in experiment [2] is “inhibition”.

Values taken from patent US20150283095A1, “NANOPARTICLES WITH BIODEGRADABLE AND BIOCOMPATIBLE POLYMER PLGA, LOADED WITH THE DRUG FOR HUMAN USE PENTOXIFYLLINE” (UNIVERSIDAD DE SANTIAGO DE CHILE, priority 2012, published 2015).
